The record followed here is patent US4786755A, “Diphenic acid monoamides” (Warner-Lambert Company, priority 1986, dated 1988).

Molecules are shown by their SMILES.

This assay addresses T1, leukotriene receptor (Cavia porcellus, UniProt Q2NNR5).
T1 construct: 20 mg original tissue wet weight of guinea pig lung membranes; tissue Kuiper Rabbit Farm, Gary, IN (animals); host or cells: guinea pig lung, crude membranes
T1 sequence (Q2NNR5 1-340): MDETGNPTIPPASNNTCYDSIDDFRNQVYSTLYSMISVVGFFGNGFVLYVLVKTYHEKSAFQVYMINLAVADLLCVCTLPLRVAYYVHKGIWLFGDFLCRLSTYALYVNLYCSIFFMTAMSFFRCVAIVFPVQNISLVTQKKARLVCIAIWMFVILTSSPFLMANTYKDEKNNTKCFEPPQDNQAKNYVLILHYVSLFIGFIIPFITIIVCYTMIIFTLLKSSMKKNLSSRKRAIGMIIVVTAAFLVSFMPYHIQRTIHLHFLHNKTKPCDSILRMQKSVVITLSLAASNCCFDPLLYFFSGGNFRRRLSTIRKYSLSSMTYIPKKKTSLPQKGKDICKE
Kind of assay: Binding of ^3 H-Leukotriene D4 to Guinea Pig Lung Membranes (RBL). The conditions noted are these: ^3 H-LTD4, guinea pig lung membranes; read-out: IC50 RBL1. On the procedure: Additionally, the activity, of the compounds having the Formula I of the present invention is determined by the well known leukotriene receptor binding assay that is described by R. F. Bruns, W. J. Thomsen and T. A. Pugsley in Life Sciences, 33, 645 (1983) or the Herxheimer in vivo antiallergy test described in H. Herxheimer, J. Physiol. (London), Vol. 177, p. 251 (1952).
Binding of ^3 H-Leukotriene D4 to Guinea Pig Lung Membranes (RBL)
[14,15-^3 H]leukotriene D4 (^3 H-LTD4) (25 Ci/mmol and 40 Ci/mmol) is purchased from New England Nuclear. Unlabeled LTC4 is a gift of Ono Pharmaceuticals (Japan). LTC4, LTD4, and LTE4 are purchased as methyl esters from Paesel GmbH (Frankfurt, W. Germany). Concentrations of the Paesel leukotrienes are calculated from their absorbance at 280 nm. Leukotriene esters are saponified overnight under N2 in 3.3% potassium carbonate at room temperature. Tritiated leukotrienes are stored as received from New England Nuclear at -20° C. Ono LTC4 (5 μg/ml is stored at -60° C. in phosphate buffer pH 6.8. Saponified Paesel leukotrienes are stored at -60° C. in 3.3% potassium carbonate (pH 9.0-9.5). Aliquots of leukotrienes are taken from stock solutions immediately after thawing, after which the stock solutions are immediately refrozen. 2-Amino-2-(hydroxymethyl)-1,3-propanediol (Tris) is Sigma pH 7.7 pre-set crystals, and dimethylsulfoxide is Aldrich Gold Label.
Preparation of crude lung membranes
Two pairs of lungs (1.3 g) from freshly sacrificed 300 g male guinea pigs (older animals gave substantially lower binding) from Kuiper Rabbit Farm, Gary, IN are disrupted with a Polytron PT 10 (setting 4) for 30 seconds in 20 ml ice-cold 50 mM Tris adjusted with HCl to pH 7.7 at 25° C. (Tris buffer), filtered through a single layer of gauze to remove connective tissue, and centrifuged at 50,000 xg for ten min. The pellet is resuspended by homogenization with a Polytron in 20 ml Tris buffer, centrifuged at 50,000 xg for ten min., resuspended, incubated at 37° C. for 30 minutes, and centrifuged again. The final pellet is resuspended in Tris buffer and either used fresh or stored at -70° C.
All incubations are in triplicate for 60 minutes at 25° C. in 12×75 mm polystyrene tubes containing 1 ml Tris buffer with 20 mg original tissue wet weight of guinea pig lung membranes, 0.2 nM ^3 H-LTD4 (6,000-11,000 cpm), 10 mM MgCl2, and 1% dimethylsulfoxide. Leukotrienes are diluted in Tris buffer. All other test compounds are dissolved at 10 mM in dimethylsulfoxide on the same day as the experiment, and diluted in dimethylsulfoxide to 100× the final incubation concentration. Control incubations receive an equal volume (10 μl) of dimethylsulfoxide; the resulting concentration of dimethylsulfoxide had no effect on binding. ^3 H-LTD4 is diluted to 2 nM in Tris buffer. The membrane suspension (20 mg/0.89 ml) contains sufficient MgCl2 to give 10 mM final concentration in the incubation. […] All additions are performed at 0° C. Immediately after the last addition, the incubation is initiated by agitating the rack of tubes on a vortex mixer and warming to 25° C. in a water bath. Tubes are vortexed at least once more during the incubation to ensure that the membranes remained suspended. Incubations are terminated after 60 minutes by filtering under reduced pressure through 25 mm Whatman GF/B filters followed by rapid washing three times with 4 ml of ice-cold Tris buffer. Filters are added to scintillation vials with 8 ml Formula 947 (New England Nuclear), left overnight, shaken, and the radioactivity counted in a scintillation counter (efficiency 40%). Nonspecific binding, defined as binding of ^3 H-LTD4 in the presence of 100 nM LTC4, is 300-500 cpm for all lots of ^3 H-LTD4. Binding to the filters in the absence of tissue is about 100 cpm, and is not affected by unlabeled LTC4. Specific binding, defined as total binding minus nonspecific binding, varied considerably from lot to lot of ^3 H-LTD4. […]
For the compound `O=C(O)c1ccccc1-c1ccccc1C(=O)Nc1ccc(CCCc2ccc(Cl)c(Cl)c2)cc1` [Example 1, [1,1'-Biphenyl]-2-carboxylic acid, 2'-[[[4-[3-(3,4-dichlorophenyl)propyl]phenyl]amino]carbonyl]-], the IC50 was 1 µM. Take `O=C(O)c1ccccc1-c1ccccc1C(=O)Nc1ccc(OCCCc2ccccc2)cc1` [Example 2]: the 50% inhibitory concentration (IC50) was determined as 4.6 µM. Consider `O=C(O)c1ccccc1-c1ccccc1C(=O)Nc1ccc(CCc2ccc(Cl)c(Cl)c2)cc1` [Example 3, [1,1'-Biphenyl]-2-carboxylic acid, 2'-[[[4-[2-(3,4-dichlorophenyl)ethyl]phenyl]amino]carbonyl]-], for which the IC50 was 4.8 µM. In the case of `O=C(O)c1ccccc1-c1ccccc1C(=O)Nc1cccc(CCc2ccc(Cl)c(Cl)c2)c1` [Example 4, [1,1'-Biphenyl]-2-carboxylic acid, 2'-[[[3-[2-(3,4-dichlorophenyl)ethyl]phenyl]amino]carbonyl]-], the IC50 is 8.5 µM. On to `CN(C(=O)c1ccccc1-c1ccccc1C(=O)O)c1ccc(CCc2ccc(Cl)c(Cl)c2)cc1` [Example 5, [1,1'-Biphenyl]-2-carboxylic acid, 2'-[[[4-[2-(3,4-dichlorophenyl)ethyl]phenyl]methylamino]carbonyl]-], for which the half-maximal inhibitory concentration (IC50) stood at 14.5 µM. As for `COc1ccc(CCc2ccc(NC(=O)c3ccccc3-c3ccccc3C(=O)O)cc2)cc1OC` [Example 7, [1,1'-Biphenyl]-2-carboxylic acid, 2'-[[[4-[2-(3,4-dimethoxyphenyl)ethyl]phenyl]amino]carbonyl]-], the IC50 was determined as 88.7 µM. In the case of `CN(C(=O)c1ccccc1-c1ccccc1C(=O)O)c1ccc(CCc2ccc(Cl)cc2)cc1` [Example 8] it was 28.7 µM; in that of `O=C(O)c1ccccc1-c1ccccc1C(=O)Nc1ccc(Cc2ccc(Cl)c(Cl)c2)cc1` [Example 9], 6.5 µM; in that of `O=C(O)c1ccccc1-c1ccccc1C(=O)Nc1ccc(CCc2ccc(Cl)cc2)cc1` [Example 11, [1,1'-Biphenyl]-2-carboxylic acid, 2'-[[4-[2-[(4-chlorophenyl)ethyl]phenyl]amino]carbonyl]-], 13.5 µM. Take `O=C(O)c1ccccc1-c1ccccc1C(=O)Nc1ccc(CCCCc2ccc(Cl)c(Cl)c2)cc1` [Example 15, [1,1'-Biphenyl]-2-carboxylic acid, 2'-[[[4-[4-(3,4-dichlorophenyl)butyl]phenyl]amino]carbonyl]-]: the IC50 is 4.2 µM. As for `O=C(O)c1ccccc1-c1ccccc1C(=O)Nc1ccc(CCCc2ccccc2)cc1` [Example 16, [1,1'-Biphenyl]-2-carboxylic acid, 2'-[[[4-(3-phenylpropyl]phenyl]amino]carbonyl]-], the IC50 turned out to be 4.3 µM. Take `O=C(O)c1ccccc1-c1ccccc1C(=O)Nc1ccc(CCCCc2ccccc2)cc1` [Example 19, [1,1'-Biphenyl]-2-carboxylic acid, 2'-[[[4-(4-phenylbutyl)phenyl]amino]carbonyl]-]: the half-inhibitory concentration (IC50) is 6.7 µM. Regarding `O=C(O)c1ccccc1-c1ccccc1C(=O)Nc1ccc(CCCCCc2ccccc2)cc1` [Example 21, [1,1'-Biphenyl]-2-carboxylic acid, 2'-[[[4-(5-phenylpentyl)phenyl]amino]carbonyl]-], the IC50 is 2.3 µM.

As a reminder, the IC50 is the midpoint of a concentration-inhibition curve.
